Laboratory results from ChEMBL document CHEMBL1154261, “Halogenated fatty acid amides and cyclic depsipeptides from an eastern Caribbean collection of the cyanobacterium Lyngbya majuscula” (J Nat Prod, 2009).
pIC50: −log10 of the molar value. Starred links: 1 amine or outer side, 2 acyl side, 3 side chain; linkers in the order of their positions; H or OH if unused. Non-standard residues stand in square brackets, D forms with d. Residues, ends and D or L forms follow the SMILES beside them. X1 = CCC[C@@H](N[*:1])[C@H](C)C(=O)[*:2]; Met(O2) = CS(=O)(=O)CC[C@H](N)C(=O)O; dNMeF = CN[C@H](Cc1ccccc1)C(=O)O; NMeL = CN[C@@H](CC(C)C)C(=O)O; dHiv = CC(C)[C@@H](O)C(=O)O

Experiments:
[1] = system: HEK293; assay: Cytotoxicity against HEK293 cells after 48 hrs by resazurin conversion-based fluorometric assay; format: cell-based; conditions: Homo sapiens, HEK293, 48 h
[2] = system: HEK293; assay: Cytotoxicity against HEK293 cells at 400 nM after 48 hrs by resazurin conversion-based fluorometric assay; format: cell-based; conditions: human, hek293, 48 h, 0.4 µM
[3] = system: Spodoptera exigua; assay: Antilepidopteran activity against beet armyworm neonates assessed as mortality rate at 1.0 mg/ml after 5 days; format: functional

## CCC[C@H]1NC(=O)[C@H](C)NC(=O)[C@H](CC(C)C)N(C)C(=O)[C@H](Cc2ccccc2)NC(=O)[C@H](CCS(C)(=O)=O)NC(=O)[C@@H](Cc2ccccc2)N(C)C(=O)[C@@H](C(C)C)OC(=O)[C@H]1C [CARRIEBOWMIDE SULFONE] (cyclo(A[X1][dHiv][dNMeF][Met(O2)]F[NMeL]))
[1]
  pIC50: < 4.30

## COc1cccc2c1C(=O)c1c(O)c3c(c(O)c1C2=O)C[C@@](O)(C(C)=O)C[C@@H]3O[C@H]1C[C@H](N)[C@H](O)[C@H](C)O1 [DAUNORUBICIN]
[2]
  Activity: 82%

## C[C@@H]1C(=O)O[C@@H](C(C)(C)O)c2nc(cs2)C(=O)OC(C)(C)[C@H](O)c2nc(cs2)C(=O)O[C@H]1CCCC(C)(Cl)Cl [DEACETYLHECTOCHLORIN]
[1]
  pIC50: 5.22

## C=CCCC(C)C(=O)C(C)CC(C)NC(=O)CCC/C(=C/Cl)CCC (stereo not drawn) [GRENADAMIDE B]
[1]
  pIC50: ≤ 4.00
[3]
  Activity: 38%

## CCC/C(=C\Cl)CCCC(=O)NC(C)CC(C)C(=O)C(C)CC/C=C/Cl (stereo not drawn) [GRENADAMIDE]
[1]
  pIC50: ≤ 4.00
[3]
  Activity: 50%

## CC(CC(=O)N(C)[C@@H]1C(=O)N(C)[C@@H](C(C)C)C(=O)N[C@H](C)C(=O)N(C)[C@@H](C)C(=O)N(C)[C@H](Cc2ccccc2)C(=O)N[C@@H](C)C(=O)O[C@@H]1C)C(Cl)Cl (stereo partly drawn) [ITRALAMIDE A]
[1]
  pIC50: 4.27
